Results: US10947188B2, “Small molecule ferroptosis inducers” (THE TRUSTEES OF COLUMBIA UNIVERSITY IN THE CITY OF NEW YORK, priority 2016, dated 2021)

Test system: BJeLR
Experiment: Modulatory profiling: Alamar Blue viability, lethal compound cotreated with death modulator (EC50, AUC)
Format: cell-based, human
Parameters: AUC, modulator BJ.Gd3+ / AUC, modulator BJ.LNAME / AUC, modulator BJ.Lmin / AUC, modulator BJ.3MA / AUC, modulator BJ.ALLN / AUC, modulator BJ.Boc D / AUC, modulator BJ.CHX / AUC, modulator BJ.Co2+ / AUC, modulator BJ.Nec-1 / AUC, modulator BJ.Pepstatin / AUC, modulator BJ.TLCK / AUC, modulator BJ.atoc / AUC, modulator BJ.trolox / AUC, modulator BJ.zVAD: unit not given beside the values
Details: for AUC, modulator BJ.3MA / AUC, modulator BJ.ALLN / AUC, modulator BJ.Boc D / AUC, modulator BJ.CHX / AUC, modulator BJ.Co2+ / AUC, modulator BJ.DPQ / AUC, modulator BJ.Gd3+ / AUC, modulator BJ.LNAME / AUC, modulator BJ.Lmin/NAD+ / AUC, modulator BJ.Lmin / AUC, modulator BJ.NAD+ / AUC, modulator BJ.NMMA / AUC, modulator BJ.Nec-1 / AUC, modulator BJ.Pepstatin / AUC, modulator BJ.TLCK / AUC, modulator BJ.atoc / AUC, modulator BJ.trolox / AUC, modulator BJ.zVAD: BJeLR cells, modulatory profile value (AUC); for AUC, modulator BJ.3MA: lethal compound cotreated with modulator 3MA; for AUC, modulator BJ.ALLN: lethal compound cotreated with modulator ALLN; for AUC, modulator BJ.Boc D: lethal compound cotreated with modulator Boc D; for AUC, modulator BJ.CHX: lethal compound cotreated with modulator CHX; for AUC, modulator BJ.Co2+: lethal compound cotreated with modulator Co2+; for AUC, modulator BJ.DPQ: lethal compound cotreated with modulator DPQ; for AUC, modulator BJ.Gd3+: lethal compound cotreated with modulator Gd3+; for AUC, modulator BJ.LNAME: lethal compound cotreated with modulator LNAME; for AUC, modulator BJ.Lmin/NAD+: lethal compound cotreated with modulator Lmin/NAD+; for AUC, modulator BJ.Lmin: lethal compound cotreated with modulator Lmin; for AUC, modulator BJ.NAD+: lethal compound cotreated with modulator NAD+; for AUC, modulator BJ.NMMA: lethal compound cotreated with modulator NMMA; for AUC, modulator BJ.Nec-1: lethal compound cotreated with modulator Nec-1; for AUC, modulator BJ.Pepstatin: lethal compound cotreated with modulator Pepstatin; for AUC, modulator BJ.TLCK: lethal compound cotreated with modulator TLCK; for AUC, modulator BJ.atoc: lethal compound cotreated with modulator atoc; for AUC, modulator BJ.trolox: lethal compound cotreated with modulator trolox; for AUC, modulator BJ.zVAD: lethal compound cotreated with modulator zVAD; for EC50: Homo sapiens, BJeLR, 48 h
[1] = cotreated with antioxidant Trolox
[2] = cotreated with antioxidant atoc
[3] = cotreated with iron-chelator Lmim

Row | SMILES | AUC, modulator BJ.3MA | AUC, modulator BJ.ALLN | AUC, modulator BJ.Boc D | AUC, modulator BJ.CHX | AUC, modulator BJ.Co2+ | AUC, modulator BJ.DPQ | AUC, modulator BJ.Gd3+ | AUC, modulator BJ.LNAME | AUC, modulator BJ.Lmin/NAD+ | AUC, modulator BJ.Lmin | AUC, modulator BJ.NAD+ | AUC, modulator BJ.NMMA | AUC, modulator BJ.Nec-1 | AUC, modulator BJ.Pepstatin | AUC, modulator BJ.TLCK | AUC, modulator BJ.atoc | AUC, modulator BJ.trolox | AUC, modulator BJ.zVAD | EC50 (DMSO) | EC50 (cotreated with Lmim_NAD) | other results
1 | CCCCS(=O)(=O)/C=C\C=C/S(=O)(=O)CCCC [CIL49] | 0.04504 | −0.05864 | −0.0257 | 0.1692 | 0.009716 | −0.002084 | −0.006048 | −0.007857 | 0.07067 | 0.03689 | 0.02344 | 0.006898 | 0.001972 | 0.02852 | −0.03549 | −0.008324 | −0.02337 | −0.001762 | – | – | –
2 | O=C(CCl)N(c1ccccc1)c1c[nH]c2ccccc12 [CIL69] | 0.07713 | −0.0005222 | −0.003228 | −0.03495 | 0.1724 | 0.02521 | 0.02983 | 0.005201 | 0.1449 | 0.1799 | 0.02203 | −0.02133 | 0.1721 | 0.0531 | 0.1963 | – | – | – | 193 nM | 889 nM | EC50 [1]: 2050 nM; EC50 [2]: 1780 nM; EC50 [3]: 976 nM
3 | O=C(CCl)N(c1ccc(Cl)cc1)c1c[nH]c2ccccc12 [CIL75] | 0.04653 | 0.01301 | 0.03092 | −0.009103 | 0.2049 | −1.616E−05 | 0.0459 | 0.01184 | 0.2292 | 0.146 | −0.01643 | −0.01449 | 0.1883 | 0.07275 | 0.2311 | – | – | – | 59.8 nM | 314 nM | EC50 [1]: 1100 nM; EC50 [2]: 1040 nM; EC50 [3]: 341 nM
4 | COC(=O)[C@@H]1Cc2c([nH]c3ccccc23)C(C)(C)N1C(=O)CCl [CIL79] | 0.0798 | 0.02717 | 0.02938 | −0.04651 | 0.1763 | 0.003967 | 0.00956 | 0.01544 | 0.2136 | 0.2049 | −0.00637 | −0.008594 | 0.2258 | 0.04063 | 0.1984 | – | – | – | 157 nM | 566 nM | EC50 [1]: 8320 nM; EC50 [2]: 7930 nM; EC50 [3]: 667 nM
5 | COc1cc2c(c(OC)c1OC)-c1ccc(OC)c(=O)cc1[C@@H](NC(C)=O)CC2 [Colchicine] | 0.003026 | −0.03356 | −0.0009082 | 0.161 | 0.1688 | −0.03053 | −0.01061 | −0.008548 | 0.1409 | 0.05808 | 0.1128 | −0.005221 | −0.04443 | 0.003669 | −0.01338 | −0.02812 | −0.004229 | 0.05702 | – | – | –
6 | COc1ccc(N(C(=O)CCl)C(C(=O)NCCc2ccccc2)c2cccs2)cc1 (stereo not drawn) [DPI4] | 0.0813 | −0.07596 | −0.0206 | −0.04482 | 0.116 | 0.02148 | 0.06864 | 0.00317 | 0.1443 | 0.1443 | 0.03153 | 0.004961 | 0.1295 | 0.03966 | 0.1612 | 0.2611 | 0.2547 | −0.02179 | – | – | –
7 | CS[C@H]1SC[C@H]2C(=O)N(C)[C@@H](C(C)C)C(=O)OC[C@@H](NC(=O)c3cnc4ccccc4n3)C(=O)N[C@@H](C)C(=O)N(C)[C@@H]1C(=O)N(C)[C@@H](C(C)C)C(=O)OC[C@@H](NC(=O)c1cnc3ccccc3n1)C(=O)N[C@@H](C)C(=O)N2C [Echinomycin] | 0.3457 | 0.02426 | 0.04925 | 0.2015 | 0.09321 | −0.004325 | 0.002041 | 0.01199 | 0.2351 | 0.1205 | 0.2292 | 0.01082 | −0.01901 | −0.004369 | −0.001724 | 0.1681 | −0.04322 | 0.005973 | – | – | –
8 | COc1cc([C@@H]2c3cc4c(cc3[C@@H](O[C@@H]3O[C@@H]5CO[C@@H](C)O[C@H]5[C@H](O)[C@H]3O)[C@H]3COC(=O)[C@H]23)OCO4)cc(OC)c1O [Etoposide] | −0.06196 | 0.06099 | 0.0612 | 0.1255 | 0.0951 | −0.0469 | 0.01317 | 0.004515 | 0.1011 | 0.04682 | 0.08359 | −0.03678 | −0.04354 | 0.01632 | 0.01399 | −0.01038 | −0.01808 | 0.06084 | – | – | –
